Source: ChEMBL document CHEMBL1145635, “Identification of long chain alkylidenemalonates as novel small molecule modulators of histone acetyltransferases” (2008)
Calls of active or inactive are those of the source. No cut-off for these calls is given here.

Columns and labels:
[1] = system: HEK-TE; experiment: Increase in histone H3 acetylation in human HEK-TE cells at 5 uM after 6 hrs by Western blot analysis; format: functional, cell-based
[2] = system: U-937; experiment: Effect on non histone alpha-tubulin in human U937 cells at 50 uM after 16 hrs by Western blot analysis; format: functional, cell-based
[3] = system: U-937; experiment: Inhibition of recombinant CBP in human U937 cells at 50 uM; format: cell-based; set-up: scale not given: the % may be the effect or the level left
[4] = target: Histone acetyltransferase KAT2B (Homo sapiens) (UniProt Q92831); experiment: Effect on PCAF in human U937 cells assessed as increase in acetylation activity at 50 uM; format: cell-based; conditions: U-937
[5] = system: U-937; experiment: Increase in histone H3 acetylation in human U937 cells at 50 uM after 16 hrs by Western blot analysis; format: functional, cell-based
[6] = system: U-937; experiment: Increase in histone H3 acetylation in human U937 cells at 5 uM after 20 hrs by Western blot analysis; format: functional, cell-based
[7] = system: U-937; experiment: Increase in histone H3 acetylation in human U937 cells at 50 uM after 20 hrs by Western blot analysis; format: functional, cell-based
[8] = system: U-937; experiment: Induction of apoptosis in human U937 cells at 50 uM after 42 hrs by flow cytometry; format: functional
[9] = system: U-937; experiment: Inhibition of p300/CBP in human U937 cells at 50 uM; format: cell-based; set-up: scale not given: the % may be the effect or the level left
[10] = target: Histone acetyltransferase KAT2A (Homo sapiens) (UniProt Q92830); experiment: Inhibition of GCN5 in human U937 cells at 50 uM; format: cell-based; conditions: U-937
[11] = system: U-937; experiment: Induction of apoptosis in human U937 cells at 25 uM after 42 hrs by flow cytometry; format: functional
[12] = system: HEK-TE; experiment: Increase in histone H3 acetylation in human HEK-TE cells at 50 uM after 6 hrs by Western blot analysis; format: functional, cell-based
[13] = system: U-937; experiment: Cell cycle arrest in human U937 cells assessed as accumulation at S phase at 25 uM after 42 hrs by flow cytometry; format: functional, cell-based

Chain of Histone acetyltransferase KAT2A (Homo sapiens) (Q92830 2-837 limits assumed): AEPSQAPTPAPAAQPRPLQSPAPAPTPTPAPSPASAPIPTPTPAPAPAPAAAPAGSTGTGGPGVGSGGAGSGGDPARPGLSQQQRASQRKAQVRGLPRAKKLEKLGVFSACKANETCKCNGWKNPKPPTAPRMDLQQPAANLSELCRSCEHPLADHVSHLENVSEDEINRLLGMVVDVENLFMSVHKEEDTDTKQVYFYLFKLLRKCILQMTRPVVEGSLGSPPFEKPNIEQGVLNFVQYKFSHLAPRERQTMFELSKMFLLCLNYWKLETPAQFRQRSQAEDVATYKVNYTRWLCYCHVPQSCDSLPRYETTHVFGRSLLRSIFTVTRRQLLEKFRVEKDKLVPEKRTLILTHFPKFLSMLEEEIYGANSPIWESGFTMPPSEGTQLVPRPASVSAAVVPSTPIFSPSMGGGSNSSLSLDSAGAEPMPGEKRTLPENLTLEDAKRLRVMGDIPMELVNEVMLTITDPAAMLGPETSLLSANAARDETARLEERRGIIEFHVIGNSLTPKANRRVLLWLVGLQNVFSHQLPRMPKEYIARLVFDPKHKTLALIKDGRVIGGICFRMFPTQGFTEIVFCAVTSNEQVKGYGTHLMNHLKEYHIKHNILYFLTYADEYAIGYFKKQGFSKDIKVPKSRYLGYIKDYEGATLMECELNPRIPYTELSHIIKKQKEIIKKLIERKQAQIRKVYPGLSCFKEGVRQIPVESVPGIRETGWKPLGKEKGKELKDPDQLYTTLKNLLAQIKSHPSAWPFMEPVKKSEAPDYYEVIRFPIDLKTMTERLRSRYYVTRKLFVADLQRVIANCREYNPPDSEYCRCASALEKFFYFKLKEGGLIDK
Chain of Histone acetyltransferase KAT2B (Homo sapiens) (Q92831 whole entry, looked up): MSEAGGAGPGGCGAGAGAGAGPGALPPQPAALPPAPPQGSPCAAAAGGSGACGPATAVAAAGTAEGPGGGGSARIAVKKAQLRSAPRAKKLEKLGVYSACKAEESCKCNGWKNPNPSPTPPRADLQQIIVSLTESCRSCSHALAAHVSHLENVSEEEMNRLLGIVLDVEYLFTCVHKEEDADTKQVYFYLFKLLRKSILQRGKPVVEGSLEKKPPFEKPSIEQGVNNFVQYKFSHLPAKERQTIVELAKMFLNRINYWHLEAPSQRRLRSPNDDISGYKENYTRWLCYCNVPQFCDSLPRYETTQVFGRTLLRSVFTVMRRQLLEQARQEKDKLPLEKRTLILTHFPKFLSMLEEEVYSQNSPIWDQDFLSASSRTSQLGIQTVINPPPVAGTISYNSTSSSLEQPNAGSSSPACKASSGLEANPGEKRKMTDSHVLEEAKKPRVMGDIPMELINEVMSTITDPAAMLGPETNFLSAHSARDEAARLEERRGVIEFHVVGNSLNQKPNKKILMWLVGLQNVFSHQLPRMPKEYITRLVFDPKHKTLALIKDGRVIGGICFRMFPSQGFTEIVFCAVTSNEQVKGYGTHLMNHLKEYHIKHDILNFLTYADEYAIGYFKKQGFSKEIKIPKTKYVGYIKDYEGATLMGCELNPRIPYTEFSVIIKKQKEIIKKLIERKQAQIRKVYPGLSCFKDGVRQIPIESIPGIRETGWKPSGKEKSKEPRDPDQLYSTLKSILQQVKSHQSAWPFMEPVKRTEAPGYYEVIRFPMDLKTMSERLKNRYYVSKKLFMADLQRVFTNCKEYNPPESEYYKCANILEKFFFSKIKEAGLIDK

Row | SMILES | Activity [1] | Activity [3] [%] | Activity [9] [%] | Activity [11] [%] | Activity [13] | also measured
1 | O=C(CCCCCCC(=O)Nc1ccccc1)NO | Active | – | – | – | – | –
2 | CCCCCCCCCCCCCCC=C(C(=O)OCC)C(=O)OCC | Active | 81 | 74 | 23.9 | Active | Activity [2]: inactive; Activity [4]: Active; Activity [5]: Active; Activity [6]: Active; Activity [7]: Active; Activity [8]: 94.4%; Activity [10]: inactive; Activity [12]: Active
3 | CCCCCCCCCCCCCC=C(C(=O)OCC)C(=O)OCC | – | – | – | 23.8 | Active | –
4 | C=C1C(=O)O[C@H](CCC)[C@H]1C(=O)O | – | 55 | – | – | – | –
5 | COc1cc(/C=C/C(=O)CC(=O)/C=C/c2ccc(O)c(OC)c2)ccc1O | – | – | 46 | – | – | –
6 | C=CC/C=C\C/C=C\CCCCCCCc1cccc(O)c1C(=O)O | – | 62 | – | – | – | –
